Assay results as given in patent publication US20040097740A1, “Method for producing delta 1-pyrrolines” (priority 2000, published 2004).
Read-outs that look alike come from different tables or passages of the source.

Key:
[1] = log P determination by HPLC on reverse-phase column (C 18), EEC Directive 79/831 Annex V.A8; assay type: physicochemical; conditions: 43° C.; for chromatographic logP: reverse-phase HPLC column (C 18)
Description: The determination is carried out in the acidic range at pH 2.3 using the mobile phases 0.1% aqueous phosphoric acid and acetonitrile; linear gradient from 10% acetonitrile to 90% acetonitrile.

[2] = pH 2.3, pH 2.3, preparation example, 0.1% aqueous phosphoric acid/acetonitrile gradient, read-out: HPLC: log P (pH 2.3)

HPLC: log P (pH 2.3) ([1]; pH 2.3, preparation example, 0.1% aqueous phosphoric acid/acetonitrile gradient) | chromatographic logP [1, 2] | melting point | chromatographic logP ([1]; pH 2.3, azides of the formula (II), acidic range pH 2.3, read-out: logP*) | chromatographic logP ([1]; pH 2.3, haloketones of the formula (III), acidic range pH 2.3, read-out: logP*) | Compound
2.71 | 2.72 | 48 °C |  |  | Fc1cccc(F)c1C1=NC(c2ccc(Br)cc2)CC1 (stereo not drawn) [Example I-1, 2-(4-bromophenyl)-5-(2,6-difluorophenyl)-3,4-dihydro-2H-pyrrole]
 |  | 64 to 65 °C |  |  | O=C(c1c(F)cccc1F)C1CC1c1ccc(Br)cc1 (stereo not drawn) [Example V-1, [2-(4-bromophenyl)cyclopropyl](2,6-difluorophenyl)methanone]
 | 4.47 |  | 4.47 |  | [N-]=[N+]=NC(CCC(=O)c1c(F)cccc1F)c1ccc(Br)cc1 (stereo not drawn) [II-1, 4-(4-bromophenyl)-4-azido-1-(2,6-difluorophenyl)-1-butanone]
 | 4.52 |  |  | 4.43 | O=C(CCC(Cl)c1ccc(Br)cc1)c1c(F)cccc1F (stereo not drawn) [III-1, 4-(4-bromophenyl)-4-chloro-1-(2,6-difluorophenyl)-1-butanone]
 |  | 71 °C |  |  | O=C(/C=C/c1ccc(Br)cc1)c1c(F)cccc1F [VI-1, (2E)-3-(4-bromophenyl)-1-(2,6-difluorophenyl)-2-propen-1-one]
